Values of other authors, collected in publication PMC12385607 (ACS medicinal chemistry letters, 2025).

Columns and labels:
[1] = 30 min post-oral administration
[2] = orally available 2-PMPA prodrugs

Row | SMILES | Plasma concentration of 2-PMPA after oral administration of 2-PMPA itself [1] | Clearance from plasma after intravenous administration (in words) | Brain distribution of 2-PMPA (in words) [2]
1 | O=C(O)CCC(CP(=O)(O)O)C(=O)O (stereo not drawn) [2-PMPA, 2-(phosphonomethyl)pentanedioic acid] | ~ 250 nM | quickly cleared from the plasma | –
2 | Cc1oc(=O)oc1COC(=O)CCC(CP(=O)(OCc1oc(=O)oc1C)OCc1oc(=O)oc1C)C(=O)OCc1oc(=O)oc1C (stereo not drawn) [tetra-ODOL-2-PMPA] | – | – | limited brain distribution
